# “Also recorded” adds a separate entry of the source.
# Experiments:
# [1] = system: transplanted kidney; assay: Kidney cross-allotransplantation in monkeys: graft function; type: in vivo, Macaque Rh. monkeys
# Method: The experiments were performed on 4 year-old Macaque Rh. monkeys. Each cohort consisted of 3 animals. […] The results of the experiments were evaluated clinically: by the presence or absence of urination from the ureterocutaneostoma.
# After intravenous anesthesia with Ketalar®, an extraperitoneal access to the left kidney was performed through layer by layer cuts to the left lumbar region. The kidney was excised from the surrounding tissues. A clamp was applied to the vessel limb; the artery, the vein and the ureter each were prepared for anastomosis separately. The kidney was excised and transferred for hypothermal conservation in Collins' solution.
# The donor kidney was transplanted into the recipient. […] anastomosis was performed: the graft arteries and veins attached to the appropriate recipient kidney vessels through plastic tubes. The kidney having been resuscitated by in blood flow, acquired the normal color and turgor. Additional hemostasis in the wound was performed. Ureterocutaneostomy was performed, which was followed by applying layer-upon-layer sutures on the wound and its aseptic dressing.
# The monkeys were narcotized by means of the intravenous anesthesia with Ketalar® and subjected to medial laparotomy from the xiphoid down to the pubic joint. Access to the left Kidney was made extraperitoneally. The kidney was teased from the surrounding tissues. A clamp was put on the vessel limb; the artery, the vein and the ureter were dressed separately; the kidney was cut and transferred for hypothermal conservation in Collins' solution.
# The internal iliac artery and the external iliac vein were extracted extra-peritoneally, immobilized and prepared for anastomosis. The donor kidney was transferred to the recipient. Vessel anastomosis was performed: the graft arteries were anastomosed with the internal iliac artery according to the end-to-end method and the graft veins were anastomosed with the external iliac vein according to the end-to-side method. The kidney having been engaged in blood flow, acquired a normal color and turgor. […]
# [2] = system: interleukin-II; assay: Immune system of monkeys: interleukin-II; type: in vivo, Macaque Rh. monkeys
# Method: Immunosuppressive activity of the prototype 2'-5'A3 and two analogues (2'-5')A2 Ar-epoxy and (2'-5')A2 A^l-epoxy were investigated in monkeys. The experiments were performed on 4 year-old Macaque Rh. monkeys. The levels of the principal subpopulations of T-lymphocytes, IgA, IgG, IgM and the amount of α- and γ-interferon and interleukin II after administration (2'-5')olygoadenylate and its analogies at the concentration of 50 and 25 μg/kg of the body weight was investigated.
# Serum levels of IgG, IgA, IgM were determined by radial immunodiffusion using antisera against human immunoglobulin A, M, G. The amount of interferon and interleukine-II were determined by the method of Lopez-Botet M. et al., 1982.
substance,measurement,setting,value
"Adenylyl (2'-5')adenylyl (2'-5')-9-(2,3-anhydro-β-D-ribofuranosyl) adenine disodium salt [(2'-5')A2 Ar-epoxy]","prevention of transplant rejection / kidney function, in words","[1]; 50 μg/kg IV, disodium salt","protects the transplant from rejection, and renews normal functioning of the transplanted kidney; also recorded: transplanted kidney resumes and maintains its normal functions; also recorded: effectively prevent the rejection"
same,time to restoration of kidney function after transplantation,"[1]; first group: 50 μg/kg IV 2 days pre-op., days 2, 6, 12, then every sixth day",≤ 10 h
same,time to restoration of kidney function after transplantation,[1]; second group: 50 μg/kg 2 days pre-op. and every other day,≤ 10 h
same,"effect on interleukin-II production, in words","[2]; monkeys, single IV, two weeks",suppresses production of interleukin-II
same,Interleukin-II,"[2]; single IV 25 μg/kg, day 0 (baseline)","4 Units per 10,000 lymphocytes"
same,Interleukin-II,"[2]; single IV 25 μg/kg, day 1","2 Units per 10,000 lymphocytes"
same,Interleukin-II,"[2]; single IV 25 μg/kg, day 2","2 Units per 10,000 lymphocytes"
same,Interleukin-II,"[2]; single IV 25 μg/kg, day 12","2 Units per 10,000 lymphocytes"
same,Interleukin-II,"[2]; single IV 25 μg/kg, day 21","4 Units per 10,000 lymphocytes"
same,Interleukin-II,"[2]; single IV 50 μg/kg, day 0 (baseline)","8 Units per 10,000 lymphocytes"
same,Interleukin-II,"[2]; single IV 50 μg/kg, day 1","4 Units per 10,000 lymphocytes"
same,Interleukin-II,"[2]; single IV 50 μg/kg, day 2","4 Units per 10,000 lymphocytes"
same,Interleukin-II,"[2]; single IV 50 μg/kg, day 12","4 Units per 10,000 lymphocytes"
same,Interleukin-II,"[2]; single IV 50 μg/kg, day 21","4 Units per 10,000 lymphocytes"

# From US5571799A, “(2'-5') oligoadenylate analogues useful as inhibitors of host-v5.-graft response” (Basco, Ltd., priority 1994, dated 1996)
